The values below are quoted from earlier work in patent publication US20040132815A1, “Preventive/remedial agent for inflammatory disease in oral-cavity mucosa and the like” (priority 2001, published 2004).

Each structure is given as a SMILES string.

For this data set the following is noted: compared with the disodium salt.

On to `CC(C)c1cc2c(cc1S(=O)(=O)[O-])[C@@]1(C)CCC[C@@](C)(C(=O)O)[C@@H]1CC2.[Na+]` [Sulfodehydroabietic acid monosodium salt], for which the hygroscopicity result is on record as “less hygroscopic” and the stability result is “more stable”.
